Data published in paper PMC5447332 (Targeted Oncology, 2017).
“And” between values parts separate entries of the source, which are not always exact repeats. Equal values may be shown once. “Also recorded” adds a separate entry of the source. Read-outs that look alike come from different tables or passages of the source.

Assays:
[1] = whole blood; ref not given; cited from earlier work
[2] = cited from earlier work
[3] = Pharmacokinetics of everolimus in whole blood when co-administered with BEZ235; format: in vivo, human (patients with advanced solid tumors)
[4] = preclinical studies; ref not given; cited from earlier work
[5] = Pharmacokinetics of BEZ235 in plasma, phase Ib combination with everolimus; format: in vivo, human (patients with advanced solid tumors); details: for Apparent clearance, CL/F / Cmax / Dose / half-life / AUC(0-t) / AUC(0-inf) / Cmax / Tmax: plasma; for half-life / AUC(0-t) / AUC(0-inf) / Cmax / Tmax: human
[6] = BEZ235 200 mg twice daily; cited from earlier work
[7] = everolimus 2.5 mg/d oral + BEZ235 200-800 mg/d, day 1, whole blood, mean ± SE
[8] = BEZ235 200 mg/d + everolimus 2.5 mg/d oral, day 1, mean ± SE
[9] = BEZ235 200 mg/d + everolimus 2.5 mg/d oral, day 28, mean ± SE
[10] = BEZ235 400 mg/d + everolimus 2.5 mg/d oral, day 1, mean ± SE
[11] = BEZ235 400 mg/d + everolimus 2.5 mg/d oral, day 28, mean ± SE
[12] = BEZ235 800 mg/d + everolimus 2.5 mg/d oral, day 1, mean ± SE
[13] = BEZ235 800 mg/d + everolimus 2.5 mg/d oral, day 28, mean ± SE
[14] = po, BEZ235 200 mg/d + everolimus 2.5 mg/d oral, day 1, mean ± SE
[15] = po, BEZ235 200 mg/d + everolimus 2.5 mg/d oral, day 28, mean ± SE
[16] = po, BEZ235 400 mg/d + everolimus 2.5 mg/d oral, day 1, mean ± SE
[17] = po, BEZ235 400 mg/d + everolimus 2.5 mg/d oral, day 28, mean ± SE
[18] = po, BEZ235 800 mg/d + everolimus 2.5 mg/d oral, day 1, mean ± SE
[19] = po, BEZ235 800 mg/d + everolimus 2.5 mg/d oral, day 28, mean ± SE

For `CO[C@H]1C[C@@H]2CC[C@@H](C)[C@@](O)(O2)C(=O)C(=O)N2CCCC[C@H]2C(=O)O[C@H]([C@H](C)C[C@@H]2CC[C@@H](OCCO)[C@H](OC)C2)CC(=O)[C@H](C)/C=C(\C)[C@@H](O)[C@@H](OC)C(=O)[C@H](C)C[C@H](C)/C=C/C=C/C=C/1C` [Everolimus, everolimus], the Binding to erythrocytes [1] is given as 85%, the Reported everolimus clearance ([2]; 5 mg dosed alone) is given as 21.3 L/h and the Reported everolimus clearance ([2]; 10 mg dosed alone) is given as 27.3 L/h. For the same molecule, the “Median Tmax” value ([2]; everolimus after oral administration, ref not given) was 1 to 2 h, the “Dose-normalized Cmax” value ([2]; everolimus dosed alone, cancer patients) was 6.3 ng/mL and the Oral bioavailability ([2]; everolimus, ref not given) was “low”. For the same molecule, the “Increase in dose-normalized AUC0-24 (exposure), combination with BEZ235 compared to everolimus alone” value ([3]; everolimus 2.5 mg/d + BEZ235 vs reported everolimus alone (ref 23)) was 1.7 fold, the “Apparent clearance, CL/F” value [3, 7] was 24.76 ± 2.91 L/h and the “Cmax / Dose” value [3, 7] was 5.63 ± 0.6 ng/mL/mg. For the same molecule, the “Cmax / Dose” value ([3]; everolimus 2.5 mg/d oral + BEZ235 200-800 mg/d, day 28, whole blood, mean ± SE) was 12.67 ± 2.96 ng/mL/mg.
For `Cn1c(=O)n(-c2ccc(C(C)(C)C#N)cc2)c2c3cc(-c4cnc5ccccc5c4)ccc3ncc21` [BEZ235, dactolisib], the Aqueous solubility [4] is given as “poor”, the “Apparent clearance, CL/F” value [5, 8] is given as 629.6 ± 278.1 L/h and the “Cmax / Dose” value [5, 8] is given as 0.2 ng/mL/mg and 0.2 ± 0.1 ng/mL/mg. The “Apparent clearance, CL/F” value [5, 9] was 116.3 ± 24.4 L/h, the “Cmax / Dose” value [5, 9] was 1.1 ± 0.6 ng/mL/mg and the “Apparent clearance, CL/F” value [5, 10] was 644.3 ± 192.9 L/h. For the same molecule, the “Cmax / Dose” value [5, 10] was 0.3 ng/mL/mg and 0.3 ± 0.1 ng/mL/mg, the “Apparent clearance, CL/F” value [5, 11] was 309.3 ± 241.3 L/h and the “Cmax / Dose” value [5, 11] was 0.6 ± 0.5 ng/mL/mg. For the same molecule, the “Apparent clearance, CL/F” value [5, 12] was 773.9 ± 262.1 L/h, the “Cmax / Dose” value [5, 12] was 0.3 ng/mL/mg and 0.3 ± 0.1 ng/mL/mg and the “Apparent clearance, CL/F” value [5, 13] was 355.9 ± 246.6 L/h. For the same molecule, the “Cmax / Dose” value [5, 13] was 1.1 ± 0.7 ng/mL/mg, the “Drug levels at steady state relative to single dose administration” value ([5]; BEZ235 200-800 mg) was about 3 fold and the half-life ([5]; oral, Steady-state half-life, range over 200-800 mg/day) was 900 to 2580 min. For the same molecule, the AUC(0-t) ([5]; po, AUC 0-24, BEZ235 200 mg/d + everolimus 2.5 mg/d oral, day 1, mean ± SE) was 433 ± 96 ng·h/mL, the AUC(0-t) ([5]; po, AUC 0-24, BEZ235 200 mg/d + everolimus 2.5 mg/d oral, day 28, mean ± SE) was 1470 ± 515 ng·h/mL and the AUC(0-t) ([5]; po, AUC 0-24, BEZ235 400 mg/d + everolimus 2.5 mg/d oral, day 1, mean ± SE) was 741 ± 171 ng·h/mL. For the same molecule, the AUC(0-t) ([5]; po, AUC 0-24, BEZ235 400 mg/d + everolimus 2.5 mg/d oral, day 28, mean ± SE) was 1460 ± 1250 ng·h/mL, the AUC(0-t) ([5]; po, AUC 0-24, BEZ235 800 mg/d + everolimus 2.5 mg/d oral, day 1, mean ± SE) was 2080 ± 666 ng·h/mL and the AUC(0-t) ([5]; po, AUC 0-24, BEZ235 800 mg/d + everolimus 2.5 mg/d oral, day 28, mean ± SE) was 7800 ± 5610 ng·h/mL. It also gave an AUC(0-inf) [5, 14] of 468 ± 118 ng·h/mL, an AUC(0-inf) [5, 15] of 1490 ± 691 ng·h/mL and an AUC(0-inf) [5, 16] of 831 ± 163 ng·h/mL. It also gave an AUC(0-inf) [5, 17] of 2710 ± 2340 ng·h/mL, an AUC(0-inf) [5, 18] of 2170 ± 675 ng·h/mL and an AUC(0-inf) [5, 19] of 8880 ± 6590 ng·h/mL. The Cmax [5, 14] was 45.2 ± 11.4 ng/mL, the Cmax [5, 15] was 214 ± 114 ng/mL and the Cmax [5, 16] was 102 ± 22.4 ng/mL. For the same molecule, the Cmax [5, 17] was 227 ± 198 ng/mL, the Cmax [5, 18] was 243 ± 52.7 ng/mL and the Cmax [5, 19] was 880 ± 570 ng/mL. It also gave a half-life ([5]; po, Terminal half-life, BEZ235 200 mg/d + everolimus 2.5 mg/d oral, day 1, mean ± SE) of 192 ± 60 min, a half-life ([5]; po, Terminal half-life, BEZ235 200 mg/d + everolimus 2.5 mg/d oral, day 28 (steady state), mean ± SE) of 1150 ± 150 min and a half-life ([5]; po, Terminal half-life, BEZ235 400 mg/d + everolimus 2.5 mg/d oral, day 1, mean ± SE) of 516 ± 90 min. The half-life ([5]; po, Terminal half-life, BEZ235 400 mg/d + everolimus 2.5 mg/d oral, day 28 (steady state), mean ± SE) was 2600 ± 648 min, the half-life ([5]; po, Terminal half-life, BEZ235 800 mg/d + everolimus 2.5 mg/d oral, day 1, mean ± SE) was 354 ± 42 min and the half-life ([5]; po, Terminal half-life, BEZ235 800 mg/d + everolimus 2.5 mg/d oral, day 28 (steady state), mean ± SE) was 900 ± 384 min. The Tmax [5, 14] was 3.8 ± 1.6 h, the Tmax [5, 15] was 2.7 ± 0.7 h and the Tmax [5, 16] was 2.5 ± 0.9 h. It also gave a Tmax [5, 17] of 1.5 ± 0.5 h, a Tmax [5, 18] of 2.6 ± 0.8 h and a Tmax [5, 19] of 2 h. For the same molecule, the “Accumulation higher than anticipated” value ([5]; multiple dosing, day 28) was 2–3 fold, the “Oral bioavailability (oral availability)” value ([5]; patients, SDS sachet, this study) was “quite low; also recorded: remained low” and the Average plasma concentration ([5]; steady state, doses of 200 to 800 mg/day) was 61 to 324 ng/mL. The AUC0-24 [6] was 752.9 ng·h/mL.
